Key:
Test in all cases: relative viability (nuclei count vs DMSO), 5 days (fraction); higher = more cells survive
[1] = compound: O=C(Nc1cccc(C(F)(F)F)c1)Nc1cc(S(=O)(=O)NC2CC2)ccc1-c1ccsc1 [AGI-6780] + CC(=O)c1c(C)c2cnc(Nc3ccc(N4CCNCC4)cn3)nc2n(C2CCCC2)c1=O [Palbociclib] (partner 0.5 µM)
Procedure, shortened: (§1)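 After 5 days of treatment, lung cancer cells in 1536-well plates were fixed and stained in a single step (final 0.05% Triton X-100, 1% formaldehyde, 1 ug/ml Hoechst) and their nuclei counted on 4× images. Treatment had been applied by pin tool the day after seeding as one drug alone or as a fixed anchor-drug dose with five library-drug doses (not always all listed) in √10 steps. Relative viability is the nuclei count of treated wells divided by that of vehicle wells, and values are medians of duplicate plates.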

[2] = compound: O=C(Nc1cccc(C(F)(F)F)c1)Nc1cc(S(=O)(=O)NC2CC2)ccc1-c1ccsc1 [AGI-6780] + Cc1nc(NC(=O)N2CCC[C@H]2C(N)=O)sc1-c1ccnc(C(C)(C)C(F)(F)F)c1 [Alpelisib] (partner 2 µM)
Procedure, shortened: as §1

[3] = compound: O=C(Nc1cccc(C(F)(F)F)c1)Nc1cc(S(=O)(=O)NC2CC2)ccc1-c1ccsc1 [AGI-6780] + Nc1nc2[nH]cc(CCc3ccc(C(=O)N[C@@H](CCC(=O)O)C(=O)O)cc3)c2c(=O)[nH]1 [Pemetrexed] (partner 0.2 µM)
Procedure, shortened: as §1

[4] = compound: O=C(Nc1cccc(C(F)(F)F)c1)Nc1cc(S(=O)(=O)NC2CC2)ccc1-c1ccsc1 [AGI-6780] + O=C(c1cc(Cc2n[nH]c(=O)c3ccccc23)ccc1F)N1CCN(C(=O)C2CC2)CC1 [Olaparib] (partner 8 µM)
Procedure, shortened: as §1

Cell Line | relative viability ([1]; first compound 0.08 µM) | relative viability ([1]; first compound 0.253 µM) | relative viability ([1]; first compound 0.8 µM) | relative viability ([1]; first compound 2.53 µM) | relative viability ([1]; first compound 8 µM) | relative viability ([2]; first compound 0.08 µM) | relative viability ([2]; first compound 0.253 µM) | relative viability ([2]; first compound 0.8 µM) | relative viability ([2]; first compound 2.53 µM) | relative viability ([2]; first compound 8 µM) | relative viability ([3]; first compound 0.08 µM) | relative viability ([3]; first compound 0.253 µM) | relative viability ([3]; first compound 0.8 µM) | relative viability ([3]; first compound 2.53 µM) | relative viability ([3]; first compound 8 µM) | relative viability ([4]; first compound 0.08 µM) | relative viability ([4]; first compound 0.253 µM) | relative viability ([4]; first compound 0.8 µM) | relative viability ([4]; first compound 2.53 µM) | relative viability ([4]; first compound 8 µM)
HCC-366 | 0.369 | 0.388 | 0.41 | 0.29 | 0.405 | 0.589 | 0.442 | 0.441 | 0.278 | 0.417 | 0.177 | 0.174 | 0.157 | 0.259 | 0.168 | 0.369 | 0.38 | 0.364 | 0.258 | 0.426
HCC-827 | 0.485 | 0.488 | 0.478 | 0.466 | 0.481 | 0.937 | 0.971 | 0.986 | 0.952 | 0.955 | 0.237 | 0.257 | 0.264 | 0.256 | 0.27 | 0.73 | 0.659 | 0.661 | 0.53 | 0.651
HOP-62 | 0.375 | 0.47 | 0.516 | 0.467 | 0.543 | 0.923 | 0.985 | 0.986 | 1.14 | 1.27 | 0.336 | 0.303 | 0.378 | 0.346 | 0.385 | 0.47 | 0.303 | 0.197 | 0.536 | 0.452
LC-2-ad | 0.536 | 0.525 | 0.524 | 0.526 | 0.463 | 0.945 | 0.983 | 0.897 | 0.862 | 0.826 | 0.278 | 0.254 | 0.255 | 0.253 | 0.284 | 0.782 | 0.707 | 0.764 | 0.674 | 0.727
LCLC-97TM1 | 0.197 | 0.223 | 0.235 | 0.212 | 0.207 | 0.211 | 0.246 | 0.393 | – | 0.351 | 0.173 | 0.157 | 0.192 | 0.156 | 0.192 | 0.41 | 0.532 | 0.394 | 0.264 | 0.378
LCLC-103H | 0.487 | 0.476 | 0.526 | 0.445 | 0.463 | 0.916 | 1.01 | 0.906 | 0.983 | 0.78 | 0.455 | 0.421 | 0.477 | 0.51 | 0.473 | 0.762 | 0.755 | 0.716 | 0.688 | 0.721
LK-2 | 0.671 | 0.643 | 0.823 | – | 0.679 | 1.27 | 1.1 | 1.29 | – | 0.986 | 0.228 | 0.359 | 0.28 | – | 0.366 | 0.643 | 0.778 | 0.945 | – | 0.755
LOU-NH91 | 0.529 | 0.528 | 0.521 | 0.515 | 0.55 | 0.743 | 0.699 | 0.685 | 0.646 | 0.721 | 0.402 | 0.395 | 0.382 | 0.389 | 0.429 | 0.942 | 0.887 | 0.94 | 0.912 | 0.89
LU99A | 0.417 | 0.435 | 0.494 | 0.334 | 0.452 | 0.528 | 0.524 | 0.516 | 0.518 | 0.558 | 0.193 | 0.162 | 0.196 | 0.195 | 0.163 | 0.255 | 0.289 | 0.178 | 0.243 | 0.287

— the supplement of paper PMC10307832
